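Growth conditions: 96-well plates. Treatment: test compound, 48 hours, 5 concentrations. Analysis: linear interpolation between bracketing concentrations; unreached endpoints set to highest concentration. GI50: concentration for 50% inhibition of growth.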 The source made the active and inactive calls. No stated cut-off is given here; in the data, active = GI50 up to about 1.1 µM and inactive = higher. Bounds are passed on as bounds.

What all share (experiment): NCI-60 cell line screen, 48 h
In assay [1] the test system is ACHN.
For assay [2], the system named is CAKI-1.
Assay [3] concerns DLD-1.
The test system of assay [4] is HOP-62.
The subject of assay [5] is HT-29.
Assay [6] concerns K562.
The subject of assay [7] is M14.
In assay [8] the test system is OVCAR-3.
Assay [9] concerns OVCAR-4.
Assay [10] concerns OVCAR-5.
The subject of assay [11] is OVCAR-8.
Assay [12] relates to SF-268.
Assay [13] deals with SF-295.
The test system of assay [14] is SF-539.
The test system of assay [15] is SN12C.
The subject of assay [16] is SNB-75.
Assay [17] deals with UACC-257.
In assay [18] the test system is UO-31.

Take `CC1CCCc2c(CC3CC(=O)NC(=O)C3)n[nH]c21` (configuration not stated): the GI50 in assay [1], in assay [2], in [3], in assay [4], in assay [5] and in [6] was > 100 µM (inactive) throughout. Further, the GI50 in [7], in [8], in assay [9], in [10], in assay [11] and in [12] was > 100 µM (inactive) throughout. Moreover, the GI50 in [13], in assay [14], in [15], in assay [16], in assay [17] and in assay [18] was > 100 µM (inactive) each time.
Turning to `O=C1OC(c2ccccc2)=N/C1=C/NC(CS)C(=O)O` (configuration not stated), the GI50 in assay [1], in [3], in assay [4], in assay [5], in [6] and in assay [7] was > 100 µM (inactive) in each case. The GI50 in [8], in [9], in [10], in [11], in assay [12] and in assay [13] was > 100 µM (inactive) in each case. Moreover, the GI50 in [14] is > 100 µM (inactive); in [15], > 100 µM (inactive); in assay [16], 64.3 µM (inactive); in [17], > 100 µM (inactive); in assay [18], > 100 µM (inactive).
In the case of `CC(C)(C)c1cc(C2c3cc4c(cc3OC(O)(CO)C2C(=O)O)OCO4)cc(C(C)(C)C)c1O.CC(C)(C)c1cc(C2c3cc4c(cc3OC3(O)COC(=O)C23)OCO4)cc(C(C)(C)C)c1O` (configuration not stated), the GI50 was 14.8 µM (inactive) in [1]; 18.4 µM (inactive) in assay [2]; 11.7 µM (inactive) in assay [3]; 32.2 µM (inactive) in [4]; 13.5 µM (inactive) in [5]; 7.67 µM (inactive) in assay [6]. For the same compound, the GI50 in assay [7] is 14.7 µM (inactive); in assay [8], 5.36 µM (inactive); in assay [9] it was 11.7 µM (inactive); in assay [11] it was 10 µM (inactive); in [13] it was 15.7 µM (inactive); in assay [14] it was 12.5 µM (inactive). For the same compound, the GI50 in [15] was 9.04 µM (inactive); in assay [16], 10.1 µM (inactive); in [17], 13.2 µM (inactive); in assay [18] it was 13.6 µM (inactive).
For `Cc1oc2c(C)c3oc(=O)cc(C)c3cc2c1CN`, the GI50 is 27.7 µM (inactive) in [1]; 43.3 µM (inactive) in [3]; 38.8 µM (inactive) in assay [4]; 31.9 µM (inactive) in assay [5]; 37.6 µM (inactive) in assay [6]; 38.5 µM (inactive) in assay [7]. The GI50 in assay [8] is 61.4 µM (inactive); in [9] it was 40.6 µM (inactive); in assay [10], 42.1 µM (inactive); in assay [11] it was 40.6 µM (inactive); in assay [12], 31 µM (inactive); in [13], 38 µM (inactive). In addition, the GI50 in assay [14] was 40.9 µM (inactive); in [15], 42.5 µM (inactive); in assay [16], 33.9 µM (inactive); in [17] it was 41.3 µM (inactive); in [18], 30.1 µM (inactive).
Turning to `CCCCCNC(=O)CCCCCCCCCCCNC(=O)CCCCCCCCCCN1C=CC(=CC=C2C=CC(=O)C=C2)C=C1`, the GI50 in [1] is > 100 µM (inactive); in [2], > 100 µM (inactive); in [3], > 100 µM (inactive); in [4], 64.6 µM (inactive); in assay [5] it was 54.6 µM (inactive); in assay [6], 21.2 µM (inactive). The GI50 in assay [7] was > 100 µM (inactive); in [8] it was 41.3 µM (inactive); in assay [9] it was 65 µM (inactive); in [10], > 100 µM (inactive); in assay [11], 55.7 µM (inactive); in [12] it was > 100 µM (inactive). The GI50 is 71.4 µM (inactive) in assay [13]; 30.3 µM (inactive) in [14]; 39.4 µM (inactive) in assay [15]; 19.4 µM (inactive) in [16]; 16.6 µM (inactive) in [17]; > 100 µM (inactive) in [18].
For the compound `COC(=O)c1c(C)cc2c(c1O)C1(O)C(=O)c3cc4c(c(O)c3C(=O)C1(OC)C(O)C2)C(=O)C=C(NC1OC(C)C(OC)C(O)C1OC)C4=O` (configuration not stated), the GI50 in [1] was 0.0681 µM (active); in assay [2], 0.225 µM (active); in assay [3], 0.0199 µM (active); in assay [4], 0.277 µM (active); in assay [5], 0.0493 µM (active); in assay [6] it was 0.0204 µM (active). Moreover, the GI50 was 0.119 µM (active) in assay [7]; 0.11 µM (active) in [8]; 0.0687 µM (active) in assay [9]; 0.205 µM (active) in [10]; 0.0695 µM (active) in assay [11]; 0.142 µM (active) in assay [12]. Further, the GI50 was 0.0331 µM (active) in assay [13]; 0.0605 µM (active) in assay [14]; 0.139 µM (active) in [15]; 0.141 µM (active) in assay [16]; 0.017 µM (active) in assay [17]; 0.14 µM (active) in assay [18].
Take `COc1cc(-c2ccccc2)c(OC)cc1CCl`: the GI50 in [1], in assay [2], in assay [3], in assay [4], in assay [5] and in assay [6] was > 100 µM (inactive) each time. In addition, the GI50 in [7], in [8], in [9], in [10], in assay [11] and in assay [12] was > 100 µM (inactive) in each case. In addition, the GI50 in [13], in [14], in [15], in assay [16], in assay [17] and in assay [18] was > 100 µM (inactive) each time.
Regarding `O=C(O)Cc1ccccc1CCc1ccccc1Cl`, the GI50 in assay [2] was > 100 µM (inactive); in [3], > 100 µM (inactive); in assay [5], > 100 µM (inactive); in [6] it was > 100 µM (inactive); in [7], > 100 µM (inactive); in [8] it was 53.2 µM (inactive). Besides, the GI50 in assay [9], in [10], in assay [11], in [12], in [13] and in assay [14] was > 100 µM (inactive) each time. Further, the GI50 is > 100 µM (inactive) in assay [15], 93.8 µM (inactive) in assay [16], > 100 µM (inactive) in assay [17] and > 100 µM (inactive) in assay [18].
With `O=C(Nc1ccc([N+](=O)[O-])cc1C(=O)O)c1ccc([N+](=O)[O-])cc1`, the GI50 in [1] was 25.3 µM (inactive); in assay [3] it was 35.4 µM (inactive); in assay [4] it was > 100 µM (inactive); in [5] it was 29 µM (inactive); in assay [6], 15.1 µM (inactive); in assay [7], 36.2 µM (inactive). The GI50 in [8] was 59.6 µM (inactive); in assay [9] it was 27.4 µM (inactive); in assay [10], 45.8 µM (inactive); in assay [11], 32.1 µM (inactive); in [12] it was 37.7 µM (inactive); in [13], > 100 µM (inactive). Further, the GI50 in assay [14] is 9.95 µM (inactive); in assay [15], 41.4 µM (inactive); in assay [16], > 100 µM (inactive); in assay [17], 40 µM (inactive); in assay [18] it was 34.3 µM (inactive).
On to `O/N=C1/CCCC/C1=C/C=C/c1ccccc1`, for which the GI50 in assay [1] was 25.6 µM (inactive); in assay [2], 35.7 µM (inactive); in [3] it was 29.6 µM (inactive); in assay [5], 18.3 µM (inactive); in assay [6] it was 18.4 µM (inactive); in [7], 21.2 µM (inactive). Moreover, the GI50 is 17.9 µM (inactive) in assay [8]; 30.3 µM (inactive) in [9]; 26.7 µM (inactive) in assay [10]; 41.9 µM (inactive) in assay [11]; 19.1 µM (inactive) in [12]; 21.8 µM (inactive) in assay [13]. The GI50 in assay [14] was 20.2 µM (inactive); in assay [15], 17.8 µM (inactive); in assay [16], 20.4 µM (inactive); in assay [17], 24.9 µM (inactive); in [18], 20.6 µM (inactive).
Consider `O=[PH](O)c1cc2ccccc2c2ccccc12`, for which the GI50 in [3], in assay [4], in assay [5], in [6], in assay [7] and in assay [8] was > 100 µM (inactive) throughout. In addition, the GI50 in assay [9], in [11], in assay [12], in assay [13], in [14] and in assay [15] was > 100 µM (inactive) in each case. The GI50 in [16] was > 100 µM (inactive).
Consider `CC(=O)OC(CC1(C)C(C)CCC23COC(=O)C2=CCCC31)c1ccoc1` (configuration not stated), for which the GI50 was 28.8 µM (inactive) in assay [1]; 26 µM (inactive) in assay [3]; 27.5 µM (inactive) in assay [4]; 29.6 µM (inactive) in assay [5]; 23.4 µM (inactive) in [6]; 16.3 µM (inactive) in [7]. In addition, the GI50 in [8] is 20.8 µM (inactive); in assay [9], 28.1 µM (inactive); in assay [10], 28.2 µM (inactive); in assay [11], 20.3 µM (inactive); in [12], 15.9 µM (inactive); in [13], 28.7 µM (inactive). Also, the GI50 in assay [14] is 25.9 µM (inactive); in assay [15], 19.9 µM (inactive); in assay [16] it was 23.3 µM (inactive); in [17] it was 24 µM (inactive); in assay [18] it was 19.1 µM (inactive).

Values taken from ChEMBL document CHEMBL1201862, “PubChem BioAssay data set” (2004).
